Earlier results, collected in US4127534A, “Novel tripeptides, intermediates therefor and pharmaceutical compositions and methods employing said tripeptides” (priority 1977, dated 1978).

Tests used:
[1] = tested on: partially purified brain opiate receptor sites
[2] = injected directly into the brain of the rat

For “H-Tyr-Gly-Gly-Phe-Met-OH [methionine enkephalin]”, the “binding to partially purified brain opiate receptor sites” value [1] is given as “binds stereo-specifically” and the analgesic activity [2] is given as “only weak analgesic agent of short duration”.
